Values quoted from earlier work, collected in patent US20250368627A1, “PYRAZOLESULFONAMIDES AS ANTITUMOR AGENTS” (Peloton Therapeutics, Inc., a fully owned subsidiary of …, priority 2019, published 2025).

Experiments:
[1] = cited from earlier work
[2] = cited from earlier work; for treatment-induced myelosuppressive effect: clinical dosing, indisulam 700 mg/m^2 IV every 3 weeks, E7820 100 mg q.d. oral; for oral bioavailability: in vivo

Row | Compound | measured drug concentration available (free drug) ([1]; according to the free drug principle) | plasma protein binding [1] | treatment-induced myelosuppressive effect [2] | oral bioavailability [2]
1 | Cc1ccc(NS(=O)(=O)c2cccc(C#N)c2)c2[nH]cc(C#N)c12 [Compound E7820, E7820] | less than 1% | greater than 99% | same myelosuppressive effects | good oral bioavailability
2 | NS(=O)(=O)c1ccc(S(=O)(=O)Nc2cccc3c(Cl)c[nH]c23)cc1 [Indisulam, indisulam] | – | – | treatment-induced myelosuppressive effect | poor oral bioavailability
